Read-outs that look alike come from different tables or passages of the source.
How the values were obtained:
SERT [1] = biological target: T1, SERT (Homo sapiens, UniProt P31645); assay: [^3H]imipramine binding to membranes harboring GFP-tagged SERT; parameters: expressed in transfected cells; membrane preparation; details: in the presence of 8B6 scFv, 15B8 Fab, or antiSERT-EL4 antibody; data not shown
SERT [2] = biological target: T1, SERT; assay: Electrophysiological measurement of methylphenidate binding kinetics to SERT (peak current inhibition and recovery); format: cell-based; parameters: expressed in transfected cells; details: for koff: peak current recovery after washout, read-out: dissociation rate koff from SERT; for association rate constant kon for binding to SERT / kon: y-intercept constrained to koff; for kon: read-out: association rate constant kon for binding to SERT
Procedure: Accordingly, we explored the hypothesis that restricting the flexibility of extracellular loops may increase the affinity of methylphenidate. […] We therefore resorted to an electrophysiological approach, which relies on the substrate-induced peak current through SERT for determining the occupancy of the binding site by methylphenidate. […] The recordings were done in the presence of high internal Na^+ (152 mM) because a high internal Na^+ concentration eliminates the steady-state current component ([5]). The isolated peak current can be quantified with high precision ([5]). The association rate of methylphenidate in the absence (Fig. 9A) and presence (Fig. 9B) of 15B8 Fab was measured by applying 5-HT (30 μM) for 3 s to obtain the reference current. Cells were subsequently exposed to methylphenidate for time intervals varying between 0.2, 0.5, 1, 2, 5, and 10 s prior to eliciting a current by fresh superfusion with 5-HT. This allowed for monitoring the onset of the methylphenidate-induced inhibition of the peak current.
Peak currents were isolated (i.e., the steady-state current was suppressed) by a high concentration of Na^+ (152 mM) in the internal solution in the patch pipet. Shown is the compilation of representative peak current traces from a single cell. […] The dashed lines were drawn by fitting the decline in peak current amplitude to an equation for a monoexponential decay to a residual activity. C and D, the experiments were carried out as outlined in panels A and B with 10, 30, 100, and 300 μM methylphenidate (MPH) in the absence (C) and presence of 300 nM 15B8 Fab 8 (D). The peak current reduction was normalized by dividing test currents by the reference current and plotted as a function of time. Data are means ± SD from three to seven independent recordings for each concentration of methylphenidate. […] Then, the peak currents were elicited by rapid application of 30 μM 5-HT with 0, 0.2, 0.5, 1, 2, 5, and 10 s delay to observe its recovery.

T1 sequence (P31645 whole entry): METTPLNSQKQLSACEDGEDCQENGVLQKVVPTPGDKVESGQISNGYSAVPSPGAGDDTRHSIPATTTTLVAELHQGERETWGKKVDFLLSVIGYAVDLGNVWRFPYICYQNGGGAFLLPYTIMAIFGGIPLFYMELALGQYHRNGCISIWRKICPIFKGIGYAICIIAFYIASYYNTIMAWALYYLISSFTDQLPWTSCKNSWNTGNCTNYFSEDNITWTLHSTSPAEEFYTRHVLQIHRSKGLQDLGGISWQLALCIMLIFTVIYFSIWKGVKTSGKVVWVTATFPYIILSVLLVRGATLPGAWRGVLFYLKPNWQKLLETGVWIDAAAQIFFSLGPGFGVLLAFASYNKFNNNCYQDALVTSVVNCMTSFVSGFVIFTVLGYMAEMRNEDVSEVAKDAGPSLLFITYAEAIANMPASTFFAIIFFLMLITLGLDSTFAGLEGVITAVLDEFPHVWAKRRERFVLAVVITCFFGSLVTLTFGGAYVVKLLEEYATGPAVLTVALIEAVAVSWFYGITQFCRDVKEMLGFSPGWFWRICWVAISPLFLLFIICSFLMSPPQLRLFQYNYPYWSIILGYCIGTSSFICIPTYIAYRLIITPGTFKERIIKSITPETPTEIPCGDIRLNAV

SMILES: COC(=O)C(c1ccccc1)C1CCCCN1 (stereo not drawn) [methylphenidate]
- competition curve versus [^3H]imipramine (SERT [1]): shift to the left
- apparent on-rate kapp (SERT [2]; 10 μM methylphenidate, absence of 15B8 Fab): 0.36 ± 0.12 s⁻¹
- apparent on-rate kapp (SERT [2]; 10 μM methylphenidate, presence of 300 nM 15B8 Fab): 1.20 ± 0.42 s⁻¹
- apparent on-rate kapp (SERT [2]; 30 μM methylphenidate, absence of 15B8 Fab): 0.87 ± 0.20 s⁻¹
- apparent on-rate kapp (SERT [2]; 30 μM methylphenidate, presence of 300 nM 15B8 Fab): 1.29 ± 0.27 s⁻¹
- apparent on-rate kapp (SERT [2]; 100 μM methylphenidate, absence of 15B8 Fab): 1.53 ± 0.40 s⁻¹
- apparent on-rate kapp (SERT [2]; 100 μM methylphenidate, presence of 300 nM 15B8 Fab): 2.72 ± 0.45 s⁻¹
- apparent on-rate kapp (SERT [2]; 300 μM methylphenidate, absence of 15B8 Fab): 3.46 ± 0.51 s⁻¹
- apparent on-rate kapp (SERT [2]; 300 μM methylphenidate, presence of 300 nM 15B8 Fab): 6.54 ± 1.04 s⁻¹
- koff (SERT [2]; absence of 15B8 Fab): 0.89 ± 0.14 s⁻¹
- association rate constant kon for binding to SERT (SERT [2]; absence of 15B8 Fab): 8.55 ± 1.03 × 10^3 M^−1 s^−1
- kon (SERT [2]; absence of 15B8 Fab): 8950 ± 1.03e+06 M⁻¹ s⁻¹
- koff (SERT [2]; presence of 15B8 Fab (300 nM)): 0.8 ± 0.12 s⁻¹
- association rate constant kon for binding to SERT (SERT [2]; presence of 15B8 Fab (300 nM)): 1.92 ± 0.06 × 10^4 M^−1 s^−1
- kon (SERT [2]; presence of 15B8 Fab (300 nM)): 19600 ± 6e+06 M⁻¹ s⁻¹

Source: PMC8253976, “Extracellular loops of the serotonin transporter act as a selectivity filter for drug binding” (The Journal of Biological Chemistry, 2021)
